Measurements as given in US20080311589A1, “METHOD OF HIGH-THROUGHPUT SCREENING OF MOLECULES AND COMPOUNDS FOR THEIR EFFECTS ON BIOLOGICAL AND CHEMICAL PROCESSES” (priority 1999, published 2008).
Where two headings read alike, the source gives them in different places.

Legend:
[1] = system: Mv1Lu mink lung epithelial cells; experiment: 384 well anti-BrdU cytoblot; format: cell-based; settings: 384-well plate; antiproliferative agents 24 hours, then 10 μM BrdU 16 hours (FIG. 2)
Source text: FIG. 1. An immunodetection assay for DNA synthesis in high density arrays of mammalian cells. (a) Cartoon depiction of an anti-BrdU cytoblot. The thymine analog 5-bromodeoxyuridine (BrdU) is incorporated into the DNA of cells that are actively replicating their DNA. The cells are in the well, and BrdU is detected with a two step antibody binding procedure. The second antibody is conjugated to the enzyme horseradish peroxidase. In the presence of the chemiluminescent substrate luminol as well as hydrogen peroxide, light of wavelength 428 nm is generated. The light emission can be detected by exposing the plate to film. (b) A cytoblot can detect TGF-β's ability to prevent BrdU incorporation in mink lung epithelial cells. 2000 Mv1Lu mink lung epithelial cells were seeded in each well of a white, opaque 384 well plate. The cells were seeded in the indicated concentrations of TGF-β in 50 μL of DMEM with 1% fetal bovine serum (FBS), 100 units/mL penicillin G sodium, 100 μg/mL streptomycin sulfate and 100 μM each of the amino acids alanine, aspartic acid, glutamine, glycine, asparagine and proline (referred to throughout as 1% mink medium) and allowed to incubate at 37° C. with 5% CO2. After 16 hours, 5.5 μL of 100 μM BrdU in 1% mink medium was added to each well, for a final concentration of 10 μM BrdU. The cells were incubated at 37° C. with 5% CO2 for an additional 16 hours and then an anti-BrdU cytoblot protocol was performed (see protocol). Wells shown are magnified 4×.
FIG. 2. A cytoblot can detect the ability of numerous antiproliferative agents to inhibit BrdU incorporation. 2000 Mv1Lu mink lung epithelial cells were seeded in each well of a white, opaque 384 well plate. The cells were seeded in 40 μL of 1% mink media and immediately 40 μL of 2× stocks of the reagents shown was added to each well and the cells were allowed to incubate at 37° C. with 5% CO2. After 24 hours, 9 μL of 100 μM BrdU in 1% mink medium was added to each well, for a final concentration of 10 μM BrdU. The cells were incubated at 37° C. with 5% CO2 for an additional 16 hours and then an anti-BrdU cytoblot protocol was performed (see protocol). Wells shown are magnified 2.5×.
The ability of the cytoblot assay to detect changes in DNA synthesis was tested by measuring the incorporation of 5-bromodeoxyuridine (BrdU, Sigma Corporation, St. Louis, Mo., Cat.# B9285) into DNA in the presence or absence of the anti-mitogen transforming growth factor β (TGF-β). Mink lung cells, which are responsive to TGF-β, were seeded into each well of an opaque, white 384-well plate. The cells were subsequently treated with varying concentrations of TGF-β for 16 hours and then with 10 μM BrdU for 16 hours. […] The following protocols provide experimental detail. […]

[2] = system: p3TPLux in 6F mink lung cells; experiment: antagonism of p3TPLux activation in 6F mink lung cells; format: cell-based; settings: for suppression of reporter activation by copper: TGFβ-responsive reporter; for suppression of reporter activation by 1a / suppression of reporter activation by 2 / suppression of reporter activation by TGFβ: TGFβ-responsive reporter in mink lung epithelial cells
Description: LUCIFERASE ASSAYS: Our transient transfection luciferase assay was described previously by us (Stockwell et al., Chem Biol 5:385, 1998). Briefly, 100,000 Mv1Lu mink lung epithelial cells were transiently transfected in 12-well dishes with 400 ng p3TPLux or pNFkB-Lux, with or without 50 ng pFC-MEKK, in 300 μL minimal essential medium with non-essential amino acids. The DEAE-dextran/chloroquine/DMSO methods was used for transfection (Stockwell et al., Chem Biol 6:71, 1999). After cell lysis in 120 μL lysis buffer, a Beckman LS 6500 liquid scintillation counter was used in single photon mode to quantitate luminescence. For detection of luciferase activity in 6F cells (including the primary screen), 20,000 6F cells were seeded in 50 μL of 10% mink medium in each well of a white 384-well plate (Nalge Nune International; Naperville, Ill.; cat#164610) using a Multidrop 384 liquid dispenser (Lab Systems; Helsinki, Finland). After 16 hours, medium was removed using a 24 channel wand (V&P Scientific, Inc.; San Diego, Calif.; cat#VP 186L), the cells were washed with 75 μL of 0.2% mink medium (containing 0.2% FBS), and reagents were added in 40 μL of 0.2% medium. For the primary screen, reagents were added by pin transfer using 384 polypropylene pin arrays (Matrix Technologies; Hudson, N.H.). After 24 hours, the cells were cooled on ice and washed twice with 75 μL Hanks Balanced Salt Solution (HBSS; GibcoBRL; cat#24020-117). Then 20 μL lysis buffer (25 mM glycylglycine (Sigma; cat#E-0396), 1% Triton X-100 (Sigma; cat#T-9284), 1 mM dithiothreitol (DTT; Sigma; cat#D-5545), 1 mM phenylmethylsulfonyl fluoride (PMSF; Sigma; cat#P-7626)) was added to each well with a Multidrop. After incubating the cells for five minutes on ice, 20 μL of ATP/luciferin solution was added (25 mM glycylglycine pH 7.8, 15 mM MgSO4, 4 mM EGTA, 6.25 mM K2HPO4 (Sigma; cat#P5504) pH 7.8, 5 mM DTT, 75 μM D-luciferin (Sigma, cat# L-9504, 2 mM ATP (Sigma; cat#A-7699)). Light output was immediately measured with an Analyst 384-well platereader (LJL), with 0.5 second counting time per well.

[3] = UV spectral shift binding assay with 2; settings: metal ion concentration inducing a 50% shift in λmax of UV shoulder of 2 from 297 nm to 310 nm ([2] = 20 μM); read-out: EC50UV 2
Description: (§1) UV SPECTRAL SHIFT BINDING ASSAY: A quartz cuvette with 1 mL deionized, distilled water was used as a blank on a Cary 1E UV-visible spectrophotomer. 1a or 2 was diluted to a final concentration of 15 μM or 20 μM, respectively, and the UV spectrum from 240 nm to 320 nm was measured. […] Upon addition of certain transition metals (Table 1), this peak shifted such that the new λmax was 273 nm and 310 nm, for 1a and 2, respectively. […] For the calculation of correlation coefficients, all values less than 7.5 μM were taken to be 7.5 μM, all values greater than 1000 μM were taken to be 1000 μm and all values less than 10 μM were taken to be 10 μM.

[4] = UV spectral shift binding assay with 1a; settings: metal ion concentration inducing a 50% shift in λmax of UV shoulder of 1a ([1a] = 15 μM) from 292 nm to 273 nm; estimate of dissociation constant; read-out: EC50UV 1a
Description: as §1

[5] = system: p3TPLux TGFβ-responsive reporter in 6F mink lung cells; experiment: luciferase assay, stably transfected p3TPLux; format: cell-based; settings: substance alone
Description: FIG. 19 graphs the dose-response of transcriptional activation of compounds 1a and 2 in the presence (*) or absence (•) of 400 pM TGFβ1. 20,000 6F mink lung cells ( ) were seeded in 384 well plates, allowed to attach for 16 hours in 10% mink medium, and were treated with the indicated concentrations of 1a or 2.
We screened more than 16,000 chemical compounds to identify those that specifically activated expression of a reporter gene (luciferase) under the control of TGFβ-responsive elements in stably transfected mammalian cells (mink lung epithelial cells). […] Given the structural similarity of compounds 1a-c, we expected that all three were operating through a common mechanism. We therefore continued testing on only one, compound 1a, as representative of the group.

[6] = metal ion concentration inhibiting 50% of the activation of p3TPLux by 1a ([1a] = 3 μM) in 6F mink lung cells, read-out: EC50SU 1a
[7] = metal ion concentration inhibiting 50% of the activation of p3TPLux by 2 ([2] = 64 μM) in 6F mink lung cells, read-out: EC50Su 2

Row | SMILES | BrdU incorporation [1] | suppression of reporter activation by copper [2] | suppression of reporter activation by 1a [2] | suppression of reporter activation by 2 [2] | suppression of reporter activation by TGFβ [2] | EC50 [3] [µM] | EC50 [4] [µM] | EC50 [2, 6] [µM] | EC50 [2, 7] [µM] | alteration of the effect of 1a, 2, or copper on the reporter [2] | activation of the TGFβ-responsive reporter gene [5]
1 | NC(=O)NO [hydroxyurea] | effectively prevent BrdU incorporation | – | – | – | – | – | – | – | – | – | –
2 | O.O.O.O.O.O.[Cl-].[Cl-].[Co+2] [Co^2+, CoCl2.6H2O] | – | did not | completely suppressed | completely suppressed | no effect | – | – | – | – | – | –
3 | [Cl-].[Cl-].[Mg+2] [Mg^2+, MgCl2] | – | – | – | – | – | > 1000 | > 1000 | > 1000 | > 1000 | – | –
4 | [Cl-].[Na+] [Na^+, NaCl] | – | – | – | – | – | > 1000 | > 1000 | > 1000 | > 1000 | – | –
5 | O.O.O.O.[Cl][Mn][Cl] [Mn^2+, MnC12.4H2O] | – | did not | suppressed transcriptional activation by 1a | no effect on activation by 2 or TGFβ | no effect on activation by 2 or TGFβ | > 1000 | 80 | 200 | > 300 | – | –
6 | CC(C)(C#N)N=NC(C)(C)C#N [AIBN, 2,2′-azobis (2-methylpropinonitrile)] | – | – | – | – | – | – | – | – | – | neither agent altered the effect of 1a, 2, or copper | –
7 | [Cl-].[Cl-].[Zn+2] [Zn^2+, ZnCl2] | – | suppressed the ability of copper to activate reporter gene expression | suppressed transcriptional activation by 1a | no effect on activation by 2 or TGFβ | no effect on activation by 2 or TGFβ | 500 | < 7.5 | 0.5 | > 300 | – | –
8 | CC(=O)[O-].CC(=O)[O-].[Ba+2] [Ba^2+, Ba(OAc)2] | – | – | – | – | – | > 1000 | > 1000 | > 1000 | > 1000 | – | –
9 | [Cl][Fe]([Cl])[Cl] [Fe^3+, FeCl3] | – | did not | completely suppressed | completely suppressed | no effect | < 10 | < 7.5 | 2 | 9 | – | –
10 | [Cl][Al]([Cl])[Cl] [Al^3+, A1C13] | – | did not | suppressed transcriptional activation by 1a | no effect on activation by 2 or TGFβ | no effect on activation by 2 or TGFβ | 200 | 30 | 1 | > 300 | – | –
11 | [Ca+2].[Cl-].[Cl-] [Ca^2+, CaCl2.2H2O] | – | – | – | – | – | > 1000 | > 1000 | > 1000 | > 1000 | – | –
12 | Oc1cccc2cccnc12 [8-hydroxyquinoline, 8-quinolinol] | – | – | – | – | – | – | – | – | – | – | did not activate our reporter
13 | [Cl-].[K+] [K^+, KCl] | – | – | – | – | – | > 1000 | > 1000 | > 1000 | > 1000 | – | –
14 | O.O.O.O.O.O.O=S(=O)([O-])[O-].[Ni+2] [Ni^2+, NiSO4.6H2O] | – | did not | suppressed transcriptional activation by 1a | no effect on activation by 2 or TGFβ | no effect on activation by 2 or TGFβ | 500 | 280 | 10 | – | – | –
15 | [Cl-].[Cl-].[Co+2] [Co^2+, CoCl2.6H2O] | – | – | – | – | – | 50 | 100 | 10 | 30 | – | –
16 | OO [Compound H2O2, H2O2] | – | – | – | – | – | – | – | – | – | neither agent altered the effect of 1a, 2, or copper | –
